Test results: publication PMC9860315, “Neuronally produced betaine acts via a ligand-gated ion channel to control behavioral states” (Proceedings of the National Academy of Sciences of the …, 2022)

Experiments:
LGC-41 [1] = molecular target: T1, LGC-41 (Caenorhabditis elegans, UniProt Q18518); test: two-electrode voltage clamp in Xenopus oocytes, agonist dose-response; type: cell-based
T1 construct: homomeric channel, cDNA from wild-type N2
T1 sequence (Q18518 26-540): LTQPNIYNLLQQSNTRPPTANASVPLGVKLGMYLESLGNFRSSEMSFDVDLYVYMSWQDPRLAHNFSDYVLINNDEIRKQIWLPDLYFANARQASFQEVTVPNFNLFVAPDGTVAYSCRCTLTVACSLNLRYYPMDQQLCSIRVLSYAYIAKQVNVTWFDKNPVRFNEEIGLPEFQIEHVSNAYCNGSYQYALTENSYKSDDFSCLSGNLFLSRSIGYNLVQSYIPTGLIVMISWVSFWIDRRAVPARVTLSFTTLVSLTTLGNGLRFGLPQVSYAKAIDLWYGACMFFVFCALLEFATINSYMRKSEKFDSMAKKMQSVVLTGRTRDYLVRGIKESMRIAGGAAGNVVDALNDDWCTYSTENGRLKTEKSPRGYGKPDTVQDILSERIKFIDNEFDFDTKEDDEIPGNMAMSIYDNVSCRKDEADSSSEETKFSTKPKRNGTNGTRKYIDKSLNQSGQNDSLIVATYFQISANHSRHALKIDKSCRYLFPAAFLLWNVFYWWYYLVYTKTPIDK

LGC-41 [2] = molecular target: T1, LGC-41; test: two-electrode voltage clamp in Xenopus oocytes, block of current induced by […] betaine; type: cell-based

Row | EC50 (LGC-41 [1]) | Structure (SMILES) | IC50 (LGC-41 [2])
1 | 211 µM | C[N+](C)(C)CC(=O)O [betaine] | –
2 | – | C=C(C)[C@@H]1[C@H]2OC(=O)[C@@H]1[C@]1(O)C[C@H]3OC34C(=O)O[C@H]2[C@@]41C.CC(C)(O)[C@@H]1[C@H]2OC(=O)[C@@H]1[C@]1(O)C[C@H]3OC34C(=O)O[C@H]2[C@@]41C (stereo partly drawn) [picrotoxin] | 144 µM
3 | – | O=C1C[C@@H]2OCC=C3CN4CC[C@]56c7ccccc7N1[C@H]5[C@H]2[C@H]3C[C@H]46 [strychnine] | 973 µM
